Measured values: patent US10800755B2, “2,6-disubstituted pyridine derivative” (Sumitomo Dainippon Pharma Co., Ltd., priority 2017, dated 2020)
Read-outs that look alike come from different tables or passages of the source.

How the values were obtained:
human 5-HT1A receptor [1] = target: T1, human 5-HT1A receptor (Homo sapiens (Human), UniProt P08908); experiment: Test 1: agonistic activity for human 5-HT1A receptor (aequorin/Gα16 luminescence in CHO-K1 cell); assay type: cell-based; settings: for 5-HT1A agonistic activity Emax / Emax: 100% = 10 μmol/L endogenous ligand; for EC50: CHO-K1 cell, aequorin luminescence; for Emax: CHO-K1
T1 sequence (P08908 whole entry): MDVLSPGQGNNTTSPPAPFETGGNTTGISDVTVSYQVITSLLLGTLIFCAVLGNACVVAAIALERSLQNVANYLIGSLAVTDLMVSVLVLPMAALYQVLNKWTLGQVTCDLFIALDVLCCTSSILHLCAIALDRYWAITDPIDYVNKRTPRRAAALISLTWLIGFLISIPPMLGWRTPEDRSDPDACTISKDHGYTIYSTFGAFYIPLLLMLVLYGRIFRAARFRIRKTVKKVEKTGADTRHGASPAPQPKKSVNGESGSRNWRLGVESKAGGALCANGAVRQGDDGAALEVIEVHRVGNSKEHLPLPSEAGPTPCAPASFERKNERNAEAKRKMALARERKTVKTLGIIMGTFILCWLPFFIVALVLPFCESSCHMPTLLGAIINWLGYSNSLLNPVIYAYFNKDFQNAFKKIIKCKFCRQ
Method: (§1) Test 1: Evaluation of Agonistic Activity for Human 5-HT1A Receptor and Human D4 Receptor
(§2) Aequorin, Gα16 proteins, and each receptor were transiently expressed in CHO-K1 cell (Chinese hamster ovary), and seeded to 384-well plate. The plate was incubated in a CO2 incubator at 37° C. for 24 hours. Each example compound dissolved in DMSO was added thereto, and the change of luminescence amount was measured with Hamamatsu FDSS/μCELL System (Hamamatsu Photonics).

human D4 receptor [2] = target: T2, human D4 receptor (Homo sapiens (Human), UniProt P21917); experiment: Test 2: binding activity to human D4 receptor ([3H] dopamine, CHO cell membrane)
T2 sequence (P21917 whole entry): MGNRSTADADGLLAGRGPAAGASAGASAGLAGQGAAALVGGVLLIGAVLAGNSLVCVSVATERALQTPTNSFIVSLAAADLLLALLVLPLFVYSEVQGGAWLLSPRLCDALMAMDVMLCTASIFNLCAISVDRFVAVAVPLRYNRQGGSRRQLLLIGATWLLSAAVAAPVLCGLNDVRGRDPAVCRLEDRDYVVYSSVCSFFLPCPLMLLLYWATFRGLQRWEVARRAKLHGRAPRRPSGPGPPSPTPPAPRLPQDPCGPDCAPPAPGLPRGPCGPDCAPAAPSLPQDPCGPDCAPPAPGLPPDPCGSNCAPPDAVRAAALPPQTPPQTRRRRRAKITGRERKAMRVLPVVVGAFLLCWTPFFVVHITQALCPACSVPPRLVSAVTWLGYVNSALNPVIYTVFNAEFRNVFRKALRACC
Method: (§3) Test 2: Evaluation of Binding Activity to Human 5-HT1A Receptor, Human D4 Receptor, and Human D2 Receptor
(§4) CHO cell membrane fraction in which human 5-HT1A receptor, human D4 receptor, and human D2 receptor were expressed was purchased from PerkinElmer Co., Ltd. In the evaluation test of binding, the test compound dissolved in DMSO, each receptor membrane preparation diluted with buffer solution, and [3H] […] The nonspecific binding to each receptor was evaluated by a competition binding experiment in the presence of 10 μmol/L 8-OH-DPAT, 10 μmol/L dopamine, or 10 μmol/L spiperone, respectively.

hERG channel [3] = target: T3, hERG channel (Homo sapiens (Human), UniProt Q12809); experiment: Test 5-1: activity for inhibiting hERG channel (whole-cell patch clamp, hERG-CHO cell, Qpatch); assay type: cell-based; settings: read-out: hERG inhibition IC50
T3 sequence (Q12809 whole entry): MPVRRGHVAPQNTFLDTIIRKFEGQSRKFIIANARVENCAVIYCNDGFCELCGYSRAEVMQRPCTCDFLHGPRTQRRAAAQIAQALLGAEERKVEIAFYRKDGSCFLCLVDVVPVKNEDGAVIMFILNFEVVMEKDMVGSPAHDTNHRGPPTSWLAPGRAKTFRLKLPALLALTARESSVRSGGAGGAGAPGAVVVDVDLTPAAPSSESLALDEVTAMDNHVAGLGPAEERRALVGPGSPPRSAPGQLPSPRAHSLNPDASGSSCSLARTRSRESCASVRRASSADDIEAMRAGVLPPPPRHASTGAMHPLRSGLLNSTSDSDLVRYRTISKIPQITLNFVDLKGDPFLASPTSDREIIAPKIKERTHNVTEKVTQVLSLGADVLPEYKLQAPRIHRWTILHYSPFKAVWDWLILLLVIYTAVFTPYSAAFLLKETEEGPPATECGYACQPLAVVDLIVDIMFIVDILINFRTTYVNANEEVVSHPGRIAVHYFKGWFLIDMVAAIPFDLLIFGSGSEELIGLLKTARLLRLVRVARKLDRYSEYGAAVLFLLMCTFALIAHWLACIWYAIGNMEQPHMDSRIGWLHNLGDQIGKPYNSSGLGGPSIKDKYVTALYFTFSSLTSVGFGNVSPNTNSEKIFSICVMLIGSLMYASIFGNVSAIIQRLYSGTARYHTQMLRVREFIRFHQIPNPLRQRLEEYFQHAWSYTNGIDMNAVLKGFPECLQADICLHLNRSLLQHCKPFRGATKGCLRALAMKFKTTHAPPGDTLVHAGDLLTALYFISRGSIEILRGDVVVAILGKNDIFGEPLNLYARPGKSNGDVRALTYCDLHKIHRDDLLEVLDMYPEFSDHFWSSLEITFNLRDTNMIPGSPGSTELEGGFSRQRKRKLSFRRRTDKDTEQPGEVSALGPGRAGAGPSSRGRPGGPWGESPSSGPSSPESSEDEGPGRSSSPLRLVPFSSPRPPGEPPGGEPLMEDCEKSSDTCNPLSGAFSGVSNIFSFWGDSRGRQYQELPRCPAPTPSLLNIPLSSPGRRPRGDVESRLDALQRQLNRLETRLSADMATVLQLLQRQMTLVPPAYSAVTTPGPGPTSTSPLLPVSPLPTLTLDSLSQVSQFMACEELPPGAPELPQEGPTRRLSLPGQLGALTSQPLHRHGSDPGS
Method: Test 5-1: Evaluation of Activity for Inhibiting hERG Channel
(§5) The activity of the present compound for inhibiting hERG channel was measured by whole-cell patch clamp method with auto patch clamp system, using CHO cell wherein hERG channel involved in human rapidly activating delayed rectifier potassium current (IKr) was forcibly expressed.
(§6) hERG-CHO cell purchased from ChanTest was incubated at 37° C. in a CO2 incubator, and the cell was exfoliated from the flask with trypsin to prepare a cell suspension, shortly before the hERG current measurement.
(§7) Extracellular fluid: 2 mmol/L CaCl2, 1 mmol/L MgCl2, 10 mmol/L HEPES, 4 mmol/L KCl, 145 mmol/L NaCl, 10 mmol/L glucose
Intracellular fluid: 5.4 mmol/L CaCl2, 1.8 mmol/L MgCl2, 10 mmol/L HEPES, 31 mmol/L KOH, 10 mmol/L EGTA, 120 mmol/L KCl, 4 mmol/L Na2-ATP
Test compound solution: The test compound was dissolved in DMSO by adjusting the concentration to 2 mmol/L or 20 mmol/L to prepare each test compound solution. […] (Measurement of Current Value and Data Analysis)
The cell suspension, the extracellular fluid, the intracellular fluid, and the measurement plate were set in an auto patch clamp system, and the hERG current was measured by whole-cell patch clamp method. […] Each pulse interval was 15 seconds. The data analysis was carried out with Qpatch Assay Software (Biolin Scientific). The test was carried out applying increscently 4 concentrations of each test compound, and the average of the peak tail currents that were obtained by the last 3 stimulations in each applied concentration was determined to be the evaluated data. By using the current inhibition rate for the pre-applied current at each concentration of each test compound, IC50 value was calculated by Hill equation with the software.

human D2 receptor = human D2 receptor (Homo sapiens (Human), UniProt P14416); experiment: Test 2: binding activity to human D2 receptor ([3H] spiperone, CHO cell membrane); settings: [3H] spiperone; read-out: D2 binding affinity (Ki value)
human D2 receptor, sequence (P14416 whole entry): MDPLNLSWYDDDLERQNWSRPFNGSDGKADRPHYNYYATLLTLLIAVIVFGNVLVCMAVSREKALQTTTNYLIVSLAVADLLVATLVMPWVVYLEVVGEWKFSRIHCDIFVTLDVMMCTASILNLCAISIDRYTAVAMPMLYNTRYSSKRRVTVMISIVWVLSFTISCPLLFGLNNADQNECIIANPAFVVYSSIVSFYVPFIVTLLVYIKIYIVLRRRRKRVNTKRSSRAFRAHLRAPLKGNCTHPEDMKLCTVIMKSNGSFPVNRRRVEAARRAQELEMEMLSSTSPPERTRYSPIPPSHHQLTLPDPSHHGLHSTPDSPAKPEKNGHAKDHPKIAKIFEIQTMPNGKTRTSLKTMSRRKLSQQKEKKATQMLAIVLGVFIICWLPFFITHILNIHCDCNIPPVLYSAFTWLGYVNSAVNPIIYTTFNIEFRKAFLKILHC
Method: as §3, §4

human 5-HT1A receptor [4] = target: T1, human 5-HT1A receptor; experiment: Test 2: binding activity to human 5-HT1A receptor ([3H] 8-OH-DPAT, CHO cell membrane); settings: [3H] 8-OH-DPAT; read-out: 5-HT1A binding affinity (Ki value)
Method: as §3, §4

human D4 receptor [5] = target: T2, human D4 receptor; experiment: Test 1: agonistic activity for human D4 receptor (aequorin/Gα16 luminescence in CHO-K1 cell); assay type: cell-based; settings: for D4 agonistic activity Emax / Emax: 100% = 10 μmol/L endogenous ligand; for EC50: CHO-K1 cell, aequorin luminescence; for Emax: CHO-K1
Method: as §1, §2

[6] = Test 3-1: metabolic stability test of human liver microsome (0.1 mg/mL); assay type: in vitro ADME; settings: test compound 0.1 μmol/L, 37° C., 30 minutes
Method: Test 3-1: Metabolic Stability Test of Human Liver Microsome
The stability of the present compounds for human liver microsome metabolism was evaluated as mentioned below. The used human liver microsome was obtained from Xenontech. Human liver microsome, NADPH, and each test compound were mixed in 25 mmol/L phosphate buffer solution (pH 7.4) to adjust each concentration as shown below, and the mixture was incubated at 37° C. for 30 minutes. • human liver microsome: 0.1 mg/mL • NAPDH: 3.2 mmol/L • test compound: 0.1 μmol/L
The residual ratio of the test compound in each sample after the incubation for 30 minutes was measured with a LC-MS, and the metabolic stability of human liver microsome was calculated about each test compound with the following formula. Metabolic stability of human liver microsome (mL/min/mg protein)=−LN (residual ratio)/“reaction time”/“concentration of human liver microsome”

hERG channel [7] = target: T3, hERG channel; experiment: Test 5-2: activity for inhibiting hERG channel (whole-cell patch clamp, hERG-CHO cell, Qube); assay type: cell-based; settings: read-out: hERG inhibition IC50
Method: Test 5-2: Evaluation of Activity for Inhibiting hERG Channel
as §5, §6, §7
Intracellular fluid: 10 mmol/L HEPES, 10 mmol/L EGTA, 20 mmol/L KCl, 130 mmol/L KF
Test compound solution: The compound was dissolved in DMSO by adjusting the concentration to 2 mmol/L or 20 mmol/L to prepare each test compound solution. […] (Measurement of Current Value and Data Analysis)
The cell suspension, the extracellular fluid, the intracellular fluid, and the measurement plate were set in an auto patch clamp system, and the hERG current was measured by whole-cell patch clamp method. The voltage-protocol was as follows: the holding potential was adjusted to −80 mV, the depolarizing pulse was added at −50 mV to +20 mV for 5 seconds, the repolarizing pulse was added at −50 mV for 5 seconds, then the potential was returned to the holding potential. Each pulse interval was 15 seconds. The data analysis was carried out with Qube Assay Software (Sophion Scientific). The test was carried out applying increscently 4 concentrations of each test compound, and the average of the peak tail currents that were obtained by the last 3 stimulations in each applied concentration was made to be the evaluated data. By using the current inhibition rate for the pre-applied current at each concentration of each test compound, IC50 value was calculated by Hill equation with the software.

[8] = [3H] dopamine, read-out: D4 binding affinity (Ki value)

Compound | 5-HT1A agonistic activity Emax (human 5-HT1A receptor [1]) [%] | EC50 (human 5-HT1A receptor [1]) [nM] | Ki (human D4 receptor [2]; [8]) [nM] | IC50 (hERG channel [3]) [nM] | Ki (human D2 receptor) [nM] | Ki (human 5-HT1A receptor [4]) [nM] | D4 agonistic activity Emax (human D4 receptor [5]) [%] | EC50 (human D4 receptor [5]) [nM] | Metabolic stability of human liver microsome [6] [mL/min/mg protein] | Emax (human 5-HT1A receptor [1]) [%] | IC50 (hERG channel [7]) [nM] | Emax (human D4 receptor [5]) [%] | Ki (human D4 receptor [2]) [nM]
O=C(NCCN1CCC(c2cccc(C(F)(F)F)n2)CC1)C1CCCOC1 (stereo not drawn) [Example 2] | 86 | 323 | 109 | > 10000 | > 10000 | 11 | 61 | 58.9 | 0.069 |  |  |  | 
Cc1cccc(C2CCN(CCNC(=O)C3CC4CCC3O4)CC2)n1 (stereo not drawn) [Example 3] |  | 38 | 198 | 32100 | > 10000 | 7.1 | 76 | 33.5 | <0.01 |  |  |  | 
Cc1cccc(C2CCN(CCNC(=O)C3CCC(F)(F)CC3)CC2)n1 [Example 4] | 90 | < 10 | 26 | 4000 | > 10000 | 0.4 | 71 | 25.1 | <0.01 |  |  |  | 
COCC1(C(=O)NCCN2CCC(c3cccc(C(F)(F)F)n3)CC2)CC1 [Example 7] | 106 | < 10 | 43 | 5600 | > 10000 | 13 | 58 | < 10 | 0.017 |  |  |  | 
Cc1cccc(C2CCN(CCNC(=O)C(C)(C)C)CC2)n1 [Example 10] | 90 |  |  | > 10000 |  |  | 85 |  | 0.015 |  |  |  | 
O=C(NCCN1CCC(c2cccc(C(F)(F)F)n2)CC1)C1CCCO1 (stereo not drawn) [Example 25] |  | 67 | 423 |  | 3330 | 20 |  | 30 | <0.05 | 46 | > 10000 | 49 | 
O=C(NCCN1CCC(c2cccc(OC(F)(F)F)n2)CC1)C1CCOCC1 [Example 28] |  | 47 | 104 |  | 2470 | 28 |  | 37 | <0.05 | 69 | > 10000 | 44 | 
Cc1cccc(C2=CCN(CCNC(=O)C3CCOCC3)CC2)n1 [Example 29, N-[2-(6-Methyl-3′,6′-dihydro[2,4′-bipyridin]-1′(2′H)-yl)ethyl]-tetrahydro-2H-pyran-4-carboxamide] |  | < 10 |  |  | > 10000 | 0.4 |  | 24 | <0.05 | 50 | > 10000 | 74 | 22
Cc1cccc(C2=CCN(CCNC(=O)C(C)(C)C)CC2)n1 [Example 30, 2,2-Dimethyl-N-[2-(6-methyl-3′,6′-dihydro[2,4′-bipyridin]-1′ (2′H)-yl)ethyl]propanamide] |  | 27 |  |  | > 10000 | 1.4 |  | < 10 | 0.114 | 36 | > 10000 | 59 | 14
CC(C)(C)C(=O)NCCN1CC=C(c2cccc(C(F)(F)F)n2)CC1 [Example 31, 2,2-Dimethyl-N-{2-[6-(trifluoromethyl)-3′,6′-dihydro[2,4′-bipyridin]-1′ (2′H)-yl]ethyl}propanamide] |  | 35 |  |  | 1280 | 0.3 |  | < 10 | <0.05 | 40 | > 10000 | 52 | 2.9
COc1cccc(C2CCN(CCNC(=O)C3CCOCC3)CC2)n1 [Example 33] |  | 22 | 119 |  | > 10000 | 21 |  | 13 | <0.05 | 83 | > 10000 | 62 | 
O=C(NCCN1CCC(c2cccc(C(F)F)n2)CC1)C1CCOCC1 [Example 34] |  | 22 | 56 |  | > 10000 | 10 |  | 15 | <0.05 | 42 | 5500 | 55 | 
CN(C)c1cccc(C2CCN(CCNC(=O)C3CCOCC3)CC2)n1 [Example 38, N-(2-{4-[6-(Dimethylamino)pyridin-2-yl]piperidin-1-yl}ethyl)-tetrahydro-2H-pyran-4-carboxamide] |  | 86 | 10 |  | > 10000 | 37 |  | 42 | <0.05 | 50 | > 10000 | 35 | 
